{"source": "patent EP4631937A1", "about": "“CRYSTALLINE FORM OR AMORPHOUS FORM OF OXOISOINDOLE-5-FORMAMIDE COMPOUND OR SALT AND SOLVATE THEREOF” (Hangzhou Glubio Pharmaceutical Co., Ltd., priority 2022, dated 2024)", "key": {"[1]": {"experiment": "Pharmacokinetic evaluation in mice by gavage", "assay_type": "in vivo", "set-up": "AUClast /D: unit not given here", "conditions": "CD1 male mice, oral, 30 mg/kg", "procedure": "CD1 male mice were selected and the test compound was administered orally. The drug concentration in plasma at different time points was quantitatively determined by LC/MS/MS to evaluate the pharmacokinetic characteristics of the test drug in mice.\nExperimental materials: CD1 Mouse (male, 20-30 g, 6-8 weeks old, Zhejiang Weitong Lihua).\nBlood was collected from the dorsal plantar vein at 0.25 h, 0.5 h, 1 h, 2 h, 4 h, 6 h, 8 h and 24 h after administration, placed in an anticoagulant tube containing EDTA-K2 and mixed, and centrifuged at 4°C and 4000 g for 5 minutes. The drug concentration in blood was determined by LC-MS/MS, and the relevant pharmacokinetic parameters were calculated by the non-compartmental linear/log trapezoidal method using Phoenix WinNonlin 6.3 pharmacokinetic software."}, "[2]": {"experiment": "Stability test of crystalline forms (open container at 25°C/92% RH and 40°C/75% RH, sealed container at 60°C, 13 days; XRPD, HPLC, colour)", "assay_type": "physicochemical", "conditions": "13 days; for Color / Solid (XRPD) / Chiral purity / Chemical purity: Solid; for Chiral purity / Chemical purity: HPLC/SFC"}, "[3]": {"experiment": "Hygroscopicity test by DVS, with XRPD after DVS", "assay_type": "physicochemical", "procedure": "• DVS Intrinsic Dynamic Vapor Sorption Instrument • Gas flow rate 200 sccm, furnace temperature 25 °C.\nThe hygroscopicity and dehydration behavior of crystalline form B was investigated by DVS. Humidity program: 25 °C, 40-0-95-0-40% RH, dm/dt 0.002, shortest equilibrium time was 60 min, and longest equilibrium time was 360 min. XRPD was also performed on the samples after DVS test to determine whether the crystal transformation occurred.\nThe hygroscopicity and dehydration behavior of crystalline form E was investigated by DVS. Humidity program: 25 °C, 40-0-95-0-40% RH, dm/dt 0.002, shortest equilibrium time was 60 min, and longest equilibrium time was 360 min. XRPD was also performed on the samples after DVS test to determine whether the crystal transformation occurred.\nThe hygroscopicity and dehydration behavior of crystalline form G was investigated by DVS. Humidity program: 25 °C, 40-0-95-0-40% RH, dm/dt 0.002, shortest equilibrium time was 60 min, and longest equilibrium time was 360 min. XRPD was also performed on the samples after DVS test to determine whether the crystal transformation occurred."}, "[4]": {"experiment": "Stability test of crystalline forms (open container at 25°C/92% RH and 40°C/75% RH, sealed container at 60°C, 13 days; XRPD, HPLC, colour)", "assay_type": "physicochemical", "procedure": "Placed in a open container at 25°C/92% RH and 40°C/75% RH for 13 days, respectively, or in a sealed container at 60°C for 13 days. […]\n(§1) Placed in a open container at 25 °C/92% RH and 40 °C/75% RH for 13 days, respectively, or in a sealed container at 60 °C for 13 days. […]\nas §1"}, "[5]": {"conditions": "mouse, plasma, 25 mM citrate buffer (pH 3) containing 5% Tween 80"}, "[6]": {"conditions": "25 °C, relative humidity 0%, listed as Crystalline form B"}, "[7]": {"conditions": "25 °C, relative humidity 10%, listed as Crystalline form B"}, "[8]": {"conditions": "25 °C, relative humidity 20%, listed as Crystalline form B"}, "[9]": {"conditions": "25 °C, relative humidity 30%, listed as Crystalline form B"}, "[10]": {"conditions": "25 °C, relative humidity 40%, listed as Crystalline form B"}, "[11]": {"conditions": "25 °C, relative humidity 50%, listed as Crystalline form B"}, "[12]": {"conditions": "25 °C, relative humidity 60%, listed as Crystalline form B"}, "[13]": {"conditions": "25 °C, relative humidity 70%, listed as Crystalline form B"}, "[14]": {"conditions": "25 °C, relative humidity 80%, listed as Crystalline form B"}, "[15]": {"conditions": "25 °C, relative humidity 90%, listed as Crystalline form B"}, "[16]": {"conditions": "25 °C, relative humidity 95%, listed as Crystalline form B"}, "[17]": {"conditions": "Solid, 40 °C/75% RH, open container, 13 days"}, "[18]": {"conditions": "initial, before storage, listed as Crystalline form B"}}, "data": [{"smiles": "O=C1CC[C@H](N2Cc3cc(C(=O)N[C@H](c4ccc(Cl)cn4)C4CCC4)ccc3C2=O)C(=O)N1", "note": "[Amorphous]", "values": [{"measurement": "AUClast /D", "setting": "[1]; 25 mM citrate buffer (pH 3) containing 5% Tween 80, dose-normalised", "result": "1178 ± 116"}, {"measurement": "AUC(0-inf)", "setting": "[1]; [5]", "result": "35900 ± 3760", "unit": "ng·h/mL"}, {"measurement": "AUC(0-t)", "setting": "[1]; [5]", "result": "35300 ± 3480", "unit": "ng·h/mL"}, {"measurement": "Cmax", "setting": "[1]; [5]", "result": "17800 ± 3130", "unit": "ng/mL"}, {"measurement": "Tmax", "setting": "[1]; [5]", "result": 0.42, "unit": "h"}, {"measurement": "half-life", "setting": "[1]; [5]", "result": 3.1, "unit": "h"}]}, {"smiles": "O=C1CC[C@H](N2Cc3cc(C(=O)N[C@H](c4ccc(Cl)cn4)C4CCC4)ccc3C2=O)C(=O)N1", "note": "[crystalline form B, N-((S)-(5-chloropyridin-2-yl)(cyclobutyl)methyl)-2-((S)-2,6-dioxopiperidin-3-yl)-1-oxoisoindoline-5-carboxamide]", "values": [{"measurement": "Color", "setting": "[2]; 25 °C/92% RH, open container", "result": "No color change"}, {"measurement": "Solid (XRPD)", "setting": "[2]; 25 °C/92% RH, open container", "result": "The crystal form did not change, see Figure 15e"}, {"measurement": "Chiral purity", "setting": "[2]; 25 °C/92% RH, open container", "result": 98.8, "unit": "% See Figure 15d"}, {"measurement": "Chemical purity", "setting": "[2]; 40 °C/75% RH, open container", "result": 97.9, "unit": "% See Figure 15f"}, {"measurement": "Chiral purity", "setting": "[2]; 40 °C/75% RH, open container", "result": 98.8, "unit": "% See Figure 15g"}, {"measurement": "Color", "setting": "[2]; 60 °C, sealed container", "result": "No color change"}, {"measurement": "Solid (XRPD)", "setting": "[2]; 60 °C, sealed container", "result": "The crystal form did not change, see Figure 15e"}, {"measurement": "Chemical purity", "setting": "[2]; 60 °C, sealed container", "result": 97.8, "unit": "% See Figure 15h"}, {"measurement": "Chiral purity", "setting": "[2]; 60 °C, sealed container", "result": 98.9, "unit": "% See Figure 15i"}, {"measurement": "stability (crystal form)", "setting": "[2]; stability tests of Table 14, Table 15 and Table 16, 25°C/92% RH, 40°C/75% RH, 60°C", "result": "the crystal form did not change"}, {"measurement": "2nd adsorption weight change percentage", "setting": "[3]; 25 °C, relative humidity 0%", "result": 0.0, "unit": "%"}, {"measurement": "2nd desorption weight change percentage", "setting": "[3]; 25 °C, relative humidity 0%", "result": 0.0, "unit": "%"}, {"measurement": "1st adsorption weight change percentage", "setting": "[3]; [6]", "result": 1.6, "unit": "%"}, {"measurement": "1st desorption weight change percentage", "setting": "[3]; [6]", "result": 1.6, "unit": "%"}, {"measurement": "1st adsorption weight change percentage", "setting": "[3]; [7]", "result": 2.0, "unit": "%"}, {"measurement": "1st desorption weight change percentage", "setting": "[3]; [7]", "result": 2.0, "unit": "%"}, {"measurement": "2nd adsorption weight change percentage", "setting": "[3]; [7]", "result": 0.4, "unit": "%"}, {"measurement": "2nd desorption weight change percentage", "setting": "[3]; [7]", "result": 0.4, "unit": "%"}, {"measurement": "1st adsorption weight change percentage", "setting": "[3]; [8]", "result": 2.7, "unit": "%"}, {"measurement": "1st desorption weight change percentage", "setting": "[3]; [8]", "result": 2.7, "unit": "%"}, {"measurement": "2nd adsorption weight change percentage", "setting": "[3]; [8]", "result": 1.1, "unit": "%"}, {"measurement": "2nd desorption weight change percentage", "setting": "[3]; [8]", "result": 1.1, "unit": "%"}, {"measurement": "1st adsorption weight change percentage", "setting": "[3]; [9]", "result": 3.2, "unit": "%"}, {"measurement": "1st desorption weight change percentage", "setting": "[3]; [9]", "result": 3.3, "unit": "%"}, {"measurement": "2nd adsorption weight change percentage", "setting": "[3]; [9]", "result": 1.7, "unit": "%"}, {"measurement": "2nd desorption weight change percentage", "setting": "[3]; [9]", "result": 1.7, "unit": "%"}, {"measurement": "1st adsorption weight change percentage", "setting": "[3]; [10]", "result": 3.7, "unit": "%"}, {"measurement": "1st desorption weight change percentage", "setting": "[3]; [10]", "result": 3.8, "unit": "%"}, {"measurement": "2nd adsorption weight change percentage", "setting": "[3]; [10]", "result": 2.2, "unit": "%"}, {"measurement": "2nd desorption weight change percentage", "setting": "[3]; [10]", "result": 2.3, "unit": "%"}, {"measurement": "1st adsorption weight change percentage", "setting": "[3]; [11]", "result": 4.5, "unit": "%"}, {"measurement": "2nd desorption weight change percentage", "setting": "[3]; [11]", "result": 3.3, "unit": "%"}, {"measurement": "1st adsorption weight change percentage", "setting": "[3]; [12]", "result": 5.0, "unit": "%"}, {"measurement": "2nd desorption weight change percentage", "setting": "[3]; [12]", "result": 3.9, "unit": "%"}, {"measurement": "1st adsorption weight change percentage", "setting": "[3]; [13]", "result": 5.4, "unit": "%"}, {"measurement": "2nd desorption weight change percentage", "setting": "[3]; [13]", "result": 5.4, "unit": "%"}, {"measurement": "1st adsorption weight change percentage", "setting": "[3]; [14]", "result": 5.9, "unit": "%"}, {"measurement": "2nd desorption weight change percentage", "setting": "[3]; [14]", "result": 5.9, "unit": "%"}, {"measurement": "1st adsorption weight change percentage", "setting": "[3]; [15]", "result": 6.9, "unit": "%"}, {"measurement": "2nd desorption weight change percentage", "setting": "[3]; [15]", "result": 7.3, "unit": "%"}, {"measurement": "1st adsorption weight change percentage", "setting": "[3]; [16]", "result": 9.2, "unit": "%"}, {"measurement": "2nd desorption weight change percentage", "setting": "[3]; [16]", "result": 9.2, "unit": "%"}, {"measurement": "XRPD after DVS test", "setting": "[3]; after 40-0-95-0-40% RH, 25 °C, listed as Crystalline form B", "result": "The crystal form did not change, see Figure 18b"}, {"measurement": "stability (crystal form)", "setting": "[3]; hygroscopic tests of Table 17, Table 18 and Table 19, DVS 25 °C, 40-0-95-0-40% RH", "result": "the crystal form did not change"}, {"measurement": "moisture adsorbed (DVS)", "setting": "[3]; under 40%RH-80%RH, 25 °C", "result": 2.2, "unit": "%"}, {"measurement": "moisture adsorbed (DVS)", "setting": "[3]; under 40%RH-95%RH, 25 °C, listed as Crystalline form B", "result": 5.5, "unit": "%"}, {"measurement": "Chemical purity", "setting": "[4]; Solid, 25 °C/92% RH, open container, 13 days, HPLC/SFC", "result": 99.2, "unit": "% See Figure 15c"}, {"measurement": "Color", "setting": "[4]; [17]", "result": "No color change"}, {"measurement": "Solid (XRPD)", "setting": "[4]; [17]", "result": "The crystal form did not change, see Figure 15e"}, {"measurement": "Initial purity (HPLC/SFC) Chemical purity", "setting": "[4]; [18]", "result": 99.5, "unit": "% See Figure 15a"}, {"measurement": "Initial purity (HPLC/SFC) Chiral purity", "setting": "[4]; [18]", "result": 99.0, "unit": "% See Figure 15b"}]}]}
